One series deals with patients with HIV/AIDS. As to conditions: cited from earlier work; for insulin-like growth factor-I (IGF-I) levels: during treatment.
In series [1] the test system is HIV/AIDS wasting patients. As to conditions: cited from earlier work.
In another series the test system is normal mice. Particulars: cited from earlier work.
In another series the test system is ob/ob mice. Particulars: daily injections, cited from earlier work.
Another series concerns patients with HADDS. As to conditions: cited from earlier work.
The test system of series [2] is AIDS patients that manifest symptoms of HADDS. As to the kind of experiment: Combined rhGH (SEROSTIM) plus statin therapy in AIDS patients with HADDS symptoms. The class given is in vivo, human. As to conditions: after 3 months; combined therapy versus rhGH alone or statin alone. The method, then: AIDS patients with a history of long-term use (an average of 12 months) of HAART that manifest symptoms of HADDS, including buffalo humps, central adiposity and peripheral muscle wasting associated with fatigue, along with elevated levels of plasma triglycerides and/or cholesterol are selected for the study. Therapy with rhGH (SEROSTIM®) is initiated in all patients at a dose of e.g., 4 mg/day subcutaneously (other concentrations, e.g., 6 mg/day could be used). At the same time, the patients are treated with a statin in a dosage amount of 40 mg/day, which is administered orally. This dosage amount is based on the average dose of statin drugs commonly administered for antilipemic purposes. The patients are maintained on this […] for three months and monitored every two weeks for improvements of fat maldistribution. In parallel therapies, patients are treated with just rhGH and just statin.

The subject of series [3] is patients with overt AIDS wasting. Particulars: cited from earlier work.
The mark [4] stands for this setting: at 12 weeks, not deemed clinically significant (Engleson et al. 1999).
[5] abbreviates: rhGH 4 to 6 mg/day, by four months (Torres 1999).

Like-named read-outs stand apart in the source and are kept apart here.

The values that follow come from patent US20070161551A1, “Methods and compositions for the treatment of lipodystrophy” (priority 2004, published 2007).

In the case of “hGH: Human growth hormone, single polypeptide chain of 191 amino acids having two disulfide bonds”, in the series with patients with HIV/AIDS (5.0 mg qod, four patients who completed the study), the “weight loss preceding the study” value is on record as “reversed”. Further, in series [1] (in vivo, sc), the “safety of supraphysiologic doses” value is listed as “safely administered”.
“leptin: protein hormone of approximately 16 kDa encoded by the obese (ob) gene; recombinant mouse or human leptin”: in the series with normal mice (mouse, in vivo), the adipose tissue entry is given as “profound depletion of adipose tissue”, the body weight entry is on record as “lose weight” and the lean mass result is listed as “increases in lean mass”. For the same substance, the “lipolysis in adipose tissue” value in the series on normal mice (no apparent effect on lean tissue, species not stated) is listed as “promotes lipolysis”. For the same substance, in the series with ob/ob mice (within a few days), the food intake entry is “dramatic reduction”. Besides, the “reduction in body weight” value in the series with ob/ob mice (within a month) is recorded as about 50%.
Consider “rhGH: Recombinant human growth hormone, rhGH, produced by Serono S. A. as SEROSTIM®”, for which, in the series on patients with HIV/AIDS (2.5 mg qod), the “insulin-like growth factor-I (IGF-I) levels” value was “no significant change”. The “insulin-like growth factor-I (IGF-I) levels” value in the series on patients with HIV/AIDS (5.0 mg qod) is given as “increased significantly”. The visceral adiposity result with patients with HADDS (Engleson et al. 1999, Mauss et al. 1998) was “reduce”. In addition, the solitary lipomas result with patients with HADDS (Milano et al. 1999) is reported as “reduce”. Further, in the series on patients with HADDS (Torres 1998, 1999), the buffalo hump result is recorded as “reduce”. The abdominal girth result in the series on patients with HADDS (Wanke et al. 1999) is “reduce”. In the series on patients with HADDS (setting [4]), the “HDL cholesterol and glucose” value is reported as “increased”; the “total cholesterol and fasting triglycerides” value was “dropped significantly”. Moreover, in the series with patients with HADDS (human, in vivo), the “collective side effects of rhGH administration” value is “swelling of the fingers or paresthesia due to tissue turgor, a few transient elevations of fasting glucose and triglycerides”. Also, in the series with patients with HADDS (quantified by bioelectrical impedance analysis), the “lean body mass and body cell mass” value is reported as “increased”. Further, in the series with patients with HADDS (setting [5]), the “change in peripheral lipodystrophy” value is given as “no change”; the “increase in fat free mass” value is reported as 5 to 10%; the “size and firmness of buffalo humps” value is reported as “significantly reduces”; the truncal adiposity result is given as “reduces”. The “changes in body weight, total body fat, or blood lipids” value in the series with patients with HADDS (rhGH 4 to 6 mg/day, during the treatment period (Torres 1999)) was “no significant or consistent changes”. The “abnormally accumulated fat, compared to baseline” value in the series on patients with HADDS (s.c., 3 to 6 mg per day for 12 to 24 weeks) is “significantly reduces”. The “effectiveness of a three-month course of therapy” value in series [1] (over 10,000 HIV/AIDS wasting patients since 1996) is on record as “effective in the majority of patients”. Besides, in series [2], the “improvement in fat maldistribution” value is on record as “do not experience as dramatic an improvement”. Moreover, the “lean body mass and weight” value in series [3] (0.1 mg/kg/day, 12 weeks, compared to placebo) was “significant increases”. For the same substance, the “tolerability of relatively high doses” value in series [3] (6 mg/day s.c., many patients with overt AIDS wasting) was “without developing adverse effects that require dose reduction or cessation of therapy”.
